# Reference: PMC7698306, “Exploring the Role of a Novel Peptide from Allomyrina dichotoma Larvae in Ameliorating Lipid Metabolism in Obesity” (International Journal of Molecular Sciences, 2020)
# Several values for one entry are separate records, joined by “and”; a condition that tells them apart may be missing. Identical values can stand only once. No end group written: not given here.
# Tests used:
# [1] = test system: HFD-fed mice; experiment: Body weight, energy intake, organ and adipose tissue weights, DXA body fat in high-fat diet (HFD)-fed mice; format: in vivo, C57BL/6 mice; details: for Total fat weight: DXA; for Total fat weight / food intake between different drug groups (appetite): EIA10 100 mg/kg/d or orlistat 60 mg/kg/d oral; for food intake between different drug groups (appetite): HFD-fed mice; for Total energy intake: over 10 weeks
# Description: (§1) Four-week-old male C57BL/6 mice were purchased from the Nara Bio Animal Center (NARA Biotech, Seoul, Korea) All experiments were approved by the Institutional Animal Care and Use Committee of Konkuk University (14 July 2019). All possible efforts were made to minimize the suffering and the animal count utilized in this study (KU19102). The mice were randomly divided into the following two groups after 1 week of acclimatization: n = 8 in the control group, fed a normal diet (Control, fat content of 10% kcal), and n = 30, fed a high-fat diet (HFD, fat content of 60% kcal). Mice were registered daily for food intake, and their body weights were assessed twice a week. After 5 weeks, mice with a body weight 20% higher than that of the control group were picked and divided randomly into three groups (n = 8/group): HFD + EIA10, 100 mg/kg/d; and HFD + orlistat, 60 mg/kg /d for 5 weeks. As a positive control, Orlistat was used. After 12 weeks, the mice were subjected to fasting overnight and sacrificed (Figure 2A). Blood samples were harvested for further analysis. Sections of epididymal adipose and liver tissues were fixed in 10% formaldehyde for histological analyses and frozen in liquid nitrogen.
# Dual-energy X-ray absorptiometry (DXA) measurements were used to compare the body fat. DXA measurements were performed after 4 weeks of administration using a total-body scanner (InAlyzer dual X-ray absorptiometry, Medikors, Gyeonggi, Korea). Data were obtained once with low energy and once with high energy.
# [2] = test system: HFD-fed mice; experiment: Serum biochemical parameters in HFD-fed mice; format: in vivo, C57BL/6 mice; details: EIA10 100 mg/kg/d or orlistat 60 mg/kg/d oral for 5 weeks, mean ± SEM, n = 8; for ALT (alanine aminotransferase) / AST (aspartate aminotransferase) / HDL (high-density lipoprotein cholesterol) / LDL/VLDL / TC (total cholesterol) / TG (triglyceride): serum
# Description: as §1
# (§2) Through heart puncture, blood samples were collected and serum was isolated through centrifugation (3000 rpm for 20 min) and processed before further study at −80 °C. An automated analyzer (Abaxis VETSVAN VS2 Chemistry Analyzer, Union City, CA, USA) assessed serum levels of blood urea nitrogen, alanine aminotransferase (ALT), alkaline phosphatase, aspartate aminotransferase (AST), total protein, serum albumin, and electrolytes. Using a fast blood lipid analyzer (OSANG Healthcare Lipid Pro, Anyang, Korea), total cholesterol (TC), low-density lipoprotein cholesterol (LDL), high-density lipoprotein cholesterol (HDL), and TG were calculated. Adiponectin was analyzed by Western blotting, and leptin was quantified using a leptin enzyme-linked immunosorbent assay (ELISA) kit (MERCK, DHB, Germany).
# [3] = test system: HFD-fed mice; experiment: Oral glucose tolerance test, insulin levels and insulin resistance indices in HFD-fed mice; format: in vivo, C57BL/6 mice; details: for area under the OGTT curve (AUC): oral glucose 1 g/kg after 12 h fast, Figure 3B
# Description: as §1, with “After 5 weeks, mice with a body weight 20% higher than that of the control group were picked and divided randomly into three groups (n = 8/group):” left out, “nitrogen. An oral glucose tolerance test (OGTT) to determine the clearance of a standardized glucose load was performed after 5 weeks of oral administration. Plasma glucose was determined under postabsorptive conditions with blood collected at time ‒30 and 0 and then after oral administration of 1 g/kg of glucose at 30, 60, 90, and 120 min. Using a Blood Glucose Testing System (891 Hogye-Dong Dongan-gu, Anyang, Gyeonggi-do, Korea), blood samples were measured from the tail veins. A mouse ultrasensitive insulin ELISA package (ALPCO, Salem, NH, USA) was quantified for serum insulin. The hepatic insulin resistance index (hepatic IRI) was estimated by using the validated method of Matsuda and DeFronzo [43]. Insulin resistance was assessed using the homeostasis model assessment of insulin resistance (HOMA-IR). HOMA is a mathematically derived model of glucose–insulin feedback.” for “nitrogen.”
# [4] = test system: 3T3-L1 cells; experiment: Lipid accumulation in differentiated 3T3-L1 cells by Oil Red O staining; format: cell-based; details: synthesized peptides, untreated cells as control
# Procedure: The 3T3-L1 cells were obtained from the Korean Cell Line Bank (Seoul, Korea). They were cultured and maintained in Dulbecco’s modified Eagle medium (DMEM) at 37 °C in a humidified atmosphere of 5% CO2. Additionally, 2-day post-confluent preadipocytes (designated day 0) were cultured in a 2-day differentiation medium composed of DMEM, 0.5 mM IBMX, 1 μM dexamethasone, and 5 μg/mL insulin to induce differentiation. The cells were then cultured in a DMEM containing 5 μg/mL insulin for another 2 days. The medium was replaced every 2 days until the cells had accumulated intracellular lipid droplets. Cells were seeded in 6-well plates, and adipocyte differentiation was induced for 8 days. On day 8, the cells were fixed with 10% buffered formalin and stained with Oil Red O solution for 60 min at room temperature. Images of lipid droplets in the 3T3-L1 adipocytes were captured using a Leica DMi1 microscope (Leica, Germany).
# [5] = test system: adiponectin, leptin, SREBP-1c, PPARγ, C/EBP-α, FAS, ACC, FABP4; experiment: mRNA (real-time PCR) and protein (Western blot, ELISA) levels of adipogenic/lipogenic factors in HFD-fed mice; format: in vivo, C57BL/6 mice
# Description: as §1, §2
# Total cellular RNA was isolated from the epididymal adipose tissue of each group of mice using TRIzol. The first strand of complementary DNA (cDNA) was synthesized using Superscript II reverse transcriptase (Invitrogen). The conditions for RT-PCR were similar to those previously described. Quantitative real-time PCR was carried out using a Thermal Cycler Dice TP850 (Takarabio Inc., Shiga, Japan) according to the manufacturer’s protocol.
# Frozen epididymal adipose tissues from mice were homogenized in liquid nitrogen. Tissue lyses were lysed in a radioimmunoprecipitation lysis buffer containing 1% protein inhibitor cocktail. They were transferred to a nitrocellulose blotting membrane and blocked with 5% skim milk, incubated overnight with primary antibodies purchased from Cell Signaling Technology, and then incubated with secondary antibodies for 2 h. Equal protein loading was ascertained using Ponceau S staining of the blotted membranes. With the help of an improved chemiluminescence detection reagent, the antibody-specific proteins were visualized and quantified using ImageJ tools.
# [6] = test system: HFD-fed mice; experiment: Histological analysis of liver and epididymal adipose tissue (H&E, Oil Red O, IHC) of HFD-fed mice; format: in vivo, C57BL/6 mice
# Description: as §1
# Liver and epididymal adipose tissues were dissected and embedded in paraffin for histological examination. Tissue blocks were cut into 4-μm thick sections that were stained with hematoxylin and eosin. Frozen liver sections were cut into 8-μm thick sections that were stained with Oil Red O. Adipocyte sizes were assessed using a microscope under 200× magnification to measure tissue size.
# [7] = male C57BL/6 mice on HFD, mean ± SEM, n = 8
# [8] = male C57BL/6 mice on HFD, EIA10 100 mg/kg/d or orlistat 60 mg/kg/d oral for 5 weeks, mean ± SEM, n = 8
compound,measurement,setting,value
"CCCCCCCCCCC[C@@H](C[C@@H]1OC(=O)[C@H]1CCCCCC)OC(=O)[C@H](CC(C)C)NC=O [Orlistat, reference compound]",Total fat weight,[1]; [7],13.71 ± 1.09 g
same,food intake between different drug groups (appetite),[1],No significant difference
same,Body weight gain,[1]; [8],12.56 ± 0.45 g
same,Epididymal adipose tissue weight,[1]; [8],1.90 ± 0.48 g
same,Final body weight,[1]; [8],36.11 ± 3.92 g
same,Initial body weight,[1]; [8],23.55 ± 0.07 g
same,Liver weight,[1]; [8],1.14 ± 0.12 g
same,Subcutaneous adipose tissue weight,[1]; [8],3.11 ± 0.53 g
same,Total energy intake,[1]; [8],1031.35 kcal and 1031.35 ± 26.32 kcal
same,Glucose,[2],160.78 ± 13.62 mg/dL
same,ALT (alanine aminotransferase),[2],44.75 ± 8.38 U/L
same,AST (aspartate aminotransferase),[2],113.88 ± 16.17 U/L
same,HDL (high-density lipoprotein cholesterol),[2],72.05 ± 4.38 mg/dL
same,LDL/VLDL,[2],41.21 ± 2.59 mg/dL
same,TC (total cholesterol),[2],113.26 ± 3.40 mg/dL
same,TG (triglyceride),[2],115.52 ± 4.66 mg/dL
same,area under the OGTT curve (AUC),"[3]; vs HFD group, p < 0.05",significantly lower
ALNQAWAFLK [Peptide 16],Lipid Accumulation (% of Control),[4],57.47 % of Control
AVQGLLK [Peptide 5],Lipid Accumulation (% of Control),[4],48.40 % of Control
Ala-Glu-Arg-Val-Gly-Ala-Gly-Ala-Pro-Val-Try [Peptide 17],Lipid Accumulation (% of Control),[4],35.06 % of Control
EIAQDFK [Peptide 3],Lipid Accumulation (% of Control),[4],52.20 % of Control
EIAQDFKTDL [EIA10],plasma leptin concentration,"[5]; ELISA, HFD-fed mice, Figure 4B",reducing
same,mRNA and protein levels of SREBP-1c in the adipose tissue,"[5]; HFD-fed mice treated with EIA10 vs HFD group, Figure 4C,D",lower
same,protein levels of adiponectin in mouse epididymal adipose tissue,"[5]; Western blot, HFD-fed mice, Figure 4A",improved
same,mRNA and protein levels of PPARγ,"[5]; epididymal adipose tissue, HFD group mice, Figure 4C,D",decreased
same,"protein levels of PPARγ, C/EBP-α, SREBP-1c, and FABP4","[5]; epididymal adipose tissue, Western blot, Figure 4D",significantly decreased
same,FAS and ACC gene expression,"[5]; epididymal adipose tissue, Western blot, Figure 5A,B",inhibitory effect
same,"expression of PPARγ, C/EBP-α, FAS, and SREBP-1c","[5]; epididymal adipose tissue, real-time PCR, Figure 4C",downregulated
same,Total fat weight,[1]; [7],12.71 ± 0.78 g
same,food intake between different drug groups (appetite),[1],No significant difference
same,Epididymal adipose tissue weight,[1]; [8],2.06 ± 0.34 g
same,Final body weight,[1]; [8],37.38 ± 2.55 g
same,Initial body weight,[1]; [8],23.07 ± 0.33 g
same,Interscapular adipose tissue weight,[1]; [8],0.22 ± 0.06 g
same,Liver weight,[1]; [8],1.22 ± 0.25 g
same,Subcutaneous adipose tissue weight,[1]; [8],3.36 ± 0.58 g
same,Total energy intake,[1]; [8],1026.01 kcal and 1026.01 ± 2.60 kcal
same,Glucose,[2],137 ± 11.47 mg/dL
same,ALT (alanine aminotransferase),[2],58.75 ± 13.16 U/L
same,AST (aspartate aminotransferase),[2],99.20 ± 20.00 U/L
same,HDL (high-density lipoprotein cholesterol),[2],74.49 ± 2.57 mg/dL
same,LDL/VLDL,[2],32.97 ± 3.42 mg/dL
same,TC (total cholesterol),[2],107.46 ± 5.15 mg/dL
same,TG (triglyceride),[2],140.25 ± 5.23 mg/dL
same,Lipid Accumulation (% of Control),[4],30.22 % of Control
same,lipid droplets in the liver (Oil Red O staining of frozen sections),"[6]; EIA10 100 mg/kg/d oral 5 weeks, vs HFD group, Figure 2C,E",significantly reduced number of lipid droplets
same,"size of the adipose cells (epididymal fat, H&E)","[6]; EIA10 100 mg/kg/d oral 5 weeks, vs HFD group, Figure 2D",lower than that of the HFD group
same,FAS in liver tissue by immunohistochemistry (IHC),[6]; Figure 5C,inhibited
same,"insulin resistance (hepatic IRI, HOMA-IR)","[3]; five weeks of oral EIA10 in obese mice, Figure 3E,F",alleviated IR in the obese mice to some extent
same,area under the OGTT curve (AUC),"[3]; vs HFD group, p < 0.05",significantly lower
same,insulin secretion level after oral glucose,"[3]; oral glucose 1 g/kg, vs HFD group, p < 0.05, Figure 3C,D",decreased
HLQLAIR [Peptide 4],Lipid Accumulation (% of Control),[4],63.26 % of Control
HLQLAIRNDEELNK [Peptide 22],Lipid Accumulation (% of Control),[4],83.11 % of Control
IAQGGVLP [Peptide 6],Lipid Accumulation (% of Control),[4],38.01 % of Control
KLPFQR [Peptide 1],Lipid Accumulation (% of Control),[4],57.85 % of Control
NDEELNKLL [Peptide 7],Lipid Accumulation (% of Control),[4],39.44 % of Control
NKLLSGVTIA [Peptide 14],Lipid Accumulation (% of Control),[4],77.76 % of Control
QNIIPASTGAAK [Peptide 21],Lipid Accumulation (% of Control),[4],44.40 % of Control
RFQSSAVMA [Peptide 12],Lipid Accumulation (% of Control),[4],57.47 % of Control
RIVDFHMLESR [Peptide 18],Lipid Accumulation (% of Control),[4],41.94 % of Control
SGVTIAQGGVLP [Peptide 19],Lipid Accumulation (% of Control),[4],68.00 % of Control
STELLIR [Peptide 2],Lipid Accumulation (% of Control),[4],59.04 % of Control
TLSDYNIQK [Peptide 13],Lipid Accumulation (% of Control),[4],68.00 % of Control
VTIAQGGVLFNIQA [Peptide 23],Lipid Accumulation (% of Control),[4],74.36 % of Control
